Laboratory results from PubChem BioAssay AID1963843 (Molecular Pharmacology Branch, DTP, NCI, 2024).

Tested on: 616215-338-R-J1-PDC complex spheroid viability
Assay: Anticancer human tumor 616215-338-R-J1-PDC patient-derived colon adenocarcinoma cell line growth inhibition [POLQ]
Conditions: for IC50: curve of first compound; for viability, T/C: stronger effect = lower value
Method: Multicellular complex tumor spheroid response to Polymerase (POL) inhibitors (novobiocin, ART-558, RP6685) in combination with a variety of drugs and investigational agents in selected tumor cell lines
The POL inhibitors (novobiocin, ART-558, and RP6685) were evaluated both individually and in combination with standard of care and investigational anticancer small molecules within a complex spheroid model of solid tumors. . Complex spheroids include a stromal component modeled by human endothelial cells (HUVEC) and fibroblasts modeled by human mesenchymal stem cells (MSCs). The concentration ranges selected for each drug and investigational agent were based upon clinically achievable concentrations if the clinical Cmax of the agent was known.
Compounds. The drugs and investigational agents: novobiocin (NSC847541), ART-558 (NSC835418), RP-6685 (NSC848927), peposertib (NSC802822), ceralasertib (NSC780249), elimusertib (NSC800525), camonsertib (NSC841442), AZD-1390 (NSC803789), olaparib (NSC753686), talazoparib (NSC767125), rucaparib (NSC756644), sotorasib (NSC818433), MRTX-1133 (NSC836407), SN-38 (NSC673596), topotecan (NSC609699), epotoside (NSC141540), doxorubicin (NSC123127), gemcitabine (NSC613327), 5-fluorouracil (NSC19893), paclitaxel (NSC125973), vemurafenib (NSC761431), MSA-2 (NSC828583), SN-011 (NSC837082), adavosertib (NSC754352), prexasertib (NSC758257), carboplatin (NSC241240) and oxaliplatin (NSC266046), were obtained from the National Cancer Institute (NCI) Developmental Therapeutics Program Chemical Repository (21). The FDA-approved anticancer drug set is available from the Developmental Therapeutics Program at https://dtp.cancer.gov/organization/dscb/obtaining/. […] The stock solutions were prepared in dimethyl sulfoxide (DMSO, Sigma-Aldrich, St. Louis, MO, cat. D2650), except for the platinum compounds which were prepared in saline (Quality Biological, Gaithersburg, MD, cat. 114-055-101), at 800-fold the tested concentration and stored at -70 degrees C prior to their use. All drugs and investigational agents were tested over a range starting from a high concentration at or near the clinical Cmax and decreasing in half-log increments. If the clinical Cmax for an agent had not been determined, the highest concentration tested was 10 microM, except for SN-38, which was tested at a high concentration of 1 microM.
Cell Culture. All cells were maintained in an incubator at 37 degrees C and 5% CO2 with 95% humidity. The PDC lines were cultured according to standard operating procedures established by the NCI PDMR (https://pdmr.cancer.gov). Table 3 of the manuscript, lists the cell lines along with the number of the three cell types plated to form the mct-spheroids and media for tumor cell growth. After thawing, all PDC lines, except 997537-175-T-J1-PDC and 415267-285-R-J2-PDC, were cultured in Matrigel-coated flasks prepared with a working solution of 1X Ham's F-12 nutrient mix, without supplementation (Thermo Fisher Scientific, cat. 11765054), 100 U/mL penicillin-streptomycin (Thermo Fisher Scientific, cat. 15140122), and 2.5% Matrigel (Corning Inc., Corning, NY, cat. 354248) for the first three passages. The two PDC lines 997537-175-T-J1-PDC and 415267-285-R-J2-PDC were cultured on uncoated flasks. The 857933-349-R-J2-PDC line was cultured in 6C/Colon 1B media containing advanced DMEM/F-12 (Thermo Fisher Scientific, cat. 12634028), 10 mM HEPES (Thermo Fisher Scientific, cat. 15630080), 1X GlutaMAX supplement (Thermo Fisher Scientific, cat. 35050061), 0.1 mg/mL primocin (InvivoGen, San Diego, CA, cat. ant-pm-2), 10% defined fetal bovine serum, heat inactivated (HyClone Laboratories Inc., Logan, UT, cat. SH30070.03HI), 50% L-WRN conditioned media (ATCC, cat. CRL-3276), 1.25 mM N-Acetyl-L-cysteine (Sigma-Aldrich, cat. A9165), 10 mM nicotinamide (Sigma-Aldrich, cat. N0636), 1X B-27 supplement (Thermo Fisher Scientific, cat. 17504044), 1X N-2 supplement (Thermo Fisher Scientific, cat. […]

[1] = second compound 0.0316 µM, first compound 0.0316 µM
[2] = second compound 0.0316 µM, first compound 0.1 µM
[3] = second compound 0.1 µM, first compound 0.0316 µM
[4] = second compound 0.1 µM, first compound 0.1 µM
[5] = second compound 0.316 µM, first compound 0.0316 µM
[6] = second compound 0.316 µM, first compound 0.1 µM
[7] = second compound 1 µM, first compound 0.0316 µM
[8] = second compound 1 µM, first compound 0.1 µM
[9] = second compound 3.16 µM, first compound 0.0316 µM
[10] = second compound 3.16 µM, first compound 0.1 µM
[11] = second compound 10 µM, first compound 0.0316 µM
[12] = second compound 10 µM, first compound 0.1 µM
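Note: spheroids exposed to compounds for one week before readout.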
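Throughout, for viability, T/C: percent viability relative to DMSO vehicle wells taken as 100%.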

SMILES: COc1ccc([C@@H](O)c2cc(-c3ncnc4cc(N5CCOCC5)ccc34)c(F)cc2Cl)nn1 + COC1C(OC(N)=O)C(O)C(Oc2ccc3c(O)c(NC(=O)c4ccc(O)c(CC=C(C)C)c4)c(=O)oc3c2C)OC1(C)C
- IC50 (second compound 0.0316 µM): > 10 µM
- IC50 (second compound 0.1 µM): > 10 µM
- IC50 (second compound 0.316 µM): > 10 µM
- IC50 (second compound 1 µM): > 10 µM
- IC50 (second compound 3.16 µM): > 10 µM
- IC50 (second compound 10 µM): > 10 µM
- viability, T/C [1]: 109%
- viability, T/C [2]: 105%
- viability, T/C (second compound 0.0316 µM, first compound 0.316 µM): 110%
- viability, T/C (second compound 0.0316 µM, first compound 1 µM): 99.4%
- viability, T/C (second compound 0.0316 µM, first compound 3.16 µM): 105%
- viability, T/C (second compound 0.0316 µM, first compound 10 µM): 76.1%
- viability, T/C [3]: 109%
- viability, T/C [4]: 99%
- viability, T/C (second compound 0.1 µM, first compound 0.316 µM): 109%
- viability, T/C (second compound 0.1 µM, first compound 1 µM): 109%
- viability, T/C (second compound 0.1 µM, first compound 3.16 µM): 113%
- viability, T/C (second compound 0.1 µM, first compound 10 µM): 73.5%
- viability, T/C [5]: 107%
- viability, T/C [6]: 101%
- viability, T/C (second compound 0.316 µM, first compound 0.316 µM): 108%
- viability, T/C (second compound 0.316 µM, first compound 1 µM): 100%
- viability, T/C (second compound 0.316 µM, first compound 3.16 µM): 114%
- viability, T/C (second compound 0.316 µM, first compound 10 µM): 77.7%
- viability, T/C [7]: 96.7%
- viability, T/C [8]: 101%
- viability, T/C (second compound 1 µM, first compound 0.316 µM): 116%
- viability, T/C (second compound 1 µM, first compound 1 µM): 117%
- viability, T/C (second compound 1 µM, first compound 3.16 µM): 110%
- viability, T/C (second compound 1 µM, first compound 10 µM): 66.3%
- viability, T/C [9]: 95.7%
- viability, T/C [10]: 104%
- viability, T/C (second compound 3.16 µM, first compound 0.316 µM): 100%
- viability, T/C (second compound 3.16 µM, first compound 1 µM): 119%
- viability, T/C (second compound 3.16 µM, first compound 3.16 µM): 108%
- viability, T/C (second compound 3.16 µM, first compound 10 µM): 69.7%
- viability, T/C [11]: 104%
- viability, T/C [12]: 94.2%
- viability, T/C (second compound 10 µM, first compound 0.316 µM): 111%
- viability, T/C (second compound 10 µM, first compound 1 µM): 107%
- viability, T/C (second compound 10 µM, first compound 3.16 µM): 110%
- viability, T/C (second compound 10 µM, first compound 10 µM): 66.5%

SMILES: Cn1ncnc1[C@H]1c2n[nH]c(=O)c3cc(F)cc(c23)N[C@@H]1c1ccc(F)cc1 + COC1C(OC(N)=O)C(O)C(Oc2ccc3c(O)c(NC(=O)c4ccc(O)c(CC=C(C)C)c4)c(=O)oc3c2C)OC1(C)C
- IC50 (second compound 0.0316 µM): > 0.1 µM
- IC50 (second compound 0.1 µM): > 0.1 µM
- IC50 (second compound 0.316 µM): > 0.1 µM
- IC50 (second compound 1 µM): > 0.1 µM
- IC50 (second compound 3.16 µM): > 0.1 µM
- IC50 (second compound 10 µM): > 0.1 µM
- viability, T/C (second compound 0.0316 µM, first compound 0.000316 µM): 103%
- viability, T/C (second compound 0.0316 µM, first compound 0.001 µM): 107%
- viability, T/C (second compound 0.0316 µM, first compound 0.00316 µM): 105%
- viability, T/C (second compound 0.0316 µM, first compound 0.01 µM): 107%
- viability, T/C [1]: 102%
- viability, T/C [2]: 102%
- viability, T/C (second compound 0.1 µM, first compound 0.000316 µM): 97.2%
- viability, T/C (second compound 0.1 µM, first compound 0.001 µM): 90.8%
- viability, T/C (second compound 0.1 µM, first compound 0.00316 µM): 102%
- viability, T/C (second compound 0.1 µM, first compound 0.01 µM): 103%
- viability, T/C [3]: 101%
- viability, T/C [4]: 109%
- viability, T/C (second compound 0.316 µM, first compound 0.000316 µM): 95.5%
- viability, T/C (second compound 0.316 µM, first compound 0.001 µM): 106%
- viability, T/C (second compound 0.316 µM, first compound 0.00316 µM): 98.9%
- viability, T/C (second compound 0.316 µM, first compound 0.01 µM): 104%
- viability, T/C [5]: 109%
- viability, T/C [6]: 95.9%
- viability, T/C (second compound 1 µM, first compound 0.000316 µM): 106%
- viability, T/C (second compound 1 µM, first compound 0.001 µM): 95.7%
- viability, T/C (second compound 1 µM, first compound 0.00316 µM): 108%
- viability, T/C (second compound 1 µM, first compound 0.01 µM): 105%
- viability, T/C [7]: 107%
- viability, T/C [8]: 104%
- viability, T/C (second compound 3.16 µM, first compound 0.000316 µM): 109%
- viability, T/C (second compound 3.16 µM, first compound 0.001 µM): 98.5%
- viability, T/C (second compound 3.16 µM, first compound 0.00316 µM): 102%
- viability, T/C (second compound 3.16 µM, first compound 0.01 µM): 101%
- viability, T/C [9]: 102%
- viability, T/C [10]: 105%
- viability, T/C (second compound 10 µM, first compound 0.000316 µM): 105%
- viability, T/C (second compound 10 µM, first compound 0.001 µM): 101%
- viability, T/C (second compound 10 µM, first compound 0.00316 µM): 103%
- viability, T/C (second compound 10 µM, first compound 0.01 µM): 117%
- viability, T/C [11]: 105%
- viability, T/C [12]: 97.1%
